Consider 14 compounds from ChEMBL document CHEMBL3769322, “Synthesis and evaluation of anticancer and antiobesity activity of 1-ethoxy carbonyl-3,5-bis (3'-indolyl methylene)-4-pyperidone analogs” (Bioorg Med Chem Lett, 2016).

The structures appear in SMILES notation. A value given as a limit tells only on which side of the number the result lay.

For assay [1], the system named is HeLa. Kind of assay: Cytotoxicity against human HeLa cells by MTT assay. It counts as functional, cell-based. A general note: Tetrazolium dyes change colour on reduction, which living cells bring about.
Assay [2] can be described thus: Cytotoxicity against human SKOV3 cells by MTT assay. The settings on record: SK-OV-3. Format: functional, cell-based.
In assay [3] the test system is HepG2. The assay is described as follows: Cytotoxicity activity against human HepG2 cells by MTT assay. Format: functional, cell-based.
A short description of assay [4]: Inhibition of porcine pancreatic lipase type 2 using p-nitrophenyl laurate as substrate after 2 hrs by UV spectrophotometric analysis. Set-up: species or system Sus scrofa.
Assay [5] relates to MCF7. Kind of assay: Cytotoxicity against human MCF7 cells by MTT assay. Format: functional, cell-based.
In assay [6] the test system is A549. The assay is described as follows: Cytotoxicity against human A549 cells by MTT assay. Format: functional, cell-based.

As usually defined, the IC50 is the concentration at which inhibition is half-maximal. As to `CCOC(=O)N1C/C(=C\c2cn(Cc3cccc(Cl)c3)c3ccccc23)C(=O)/C(=C/c2cn(Cc3cccc(Cl)c3)c3ccccc23)C1`, the IC50 in assay [1] was more than 100 µM; in assay [2], 18 µM; in assay [3], 7.33 µM; in assay [4], “Not Active”; in assay [5], more than 100 µM; in assay [6], 4.21 µM.
On to `CCOC(=O)N1C/C(=C\c2cn(C)c3ccccc23)C(=O)/C(=C/c2cn(C)c3ccccc23)C1`, for which the IC50 was more than 100 µM in assay [1]; 55.1 µM in assay [2]; more than 100 µM in assay [3]; “Not Active” in assay [4]; more than 100 µM in assay [5]; 66.7 µM in assay [6].
Regarding `COc1cc(/C=C/C(=O)CC(=O)/C=C/c2ccc(O)c(OC)c2)ccc1O` [CURCUMIN], the concentration for half-maximal inhibition (IC50) worked out at 51.9 µM in assay [1]; 49.9 µM in assay [2]; 4.43 µM in assay [3]; 46.2 µM in assay [5]; 23.5 µM in assay [6].
Regarding `CCCCCCCCCCC[C@@H](C[C@@H]1OC(=O)[C@H]1CCCCCC)OC(=O)[C@H](CC(C)C)NC=O` [ORLISTAT], the half-inhibitory concentration (IC50) in assay [4] (read-out: IC50) is 62.2 µM.
As for `CCOC(=O)N1C/C(=C\c2cn(Cc3ccc([N+](=O)[O-])cc3)c3ccccc23)C(=O)/C(=C/c2cn(Cc3ccc([N+](=O)[O-])cc3)c3ccccc23)C1`, the IC50 in assay [1] is more than 100 µM; in assay [2] it was more than 100 µM; in assay [3], more than 100 µM; in assay [4] (read-out: IC50) it was 30.9 µM; in assay [5], more than 100 µM; in assay [6], 16 µM.
Consider `CCOC(=O)N1C/C(=C\c2cn(Cc3ccccc3F)c3ccccc23)C(=O)/C(=C/c2cn(Cc3ccccc3F)c3ccccc23)C1`, for which the 50% inhibitory concentration (IC50) in assay [1] was more than 100 µM; in assay [2], 85.5 µM; in assay [3], more than 100 µM; in assay [4] (read-out: IC50), 56.4 µM; in assay [5], more than 100 µM; in assay [6] it was 29.1 µM.
In the case of `CCOC(=O)N1C/C(=C\c2cn(Cc3ccccc3Cl)c3ccccc23)C(=O)/C(=C/c2cn(Cc3ccccc3Cl)c3ccccc23)C1`, the half-maximal inhibitory concentration (IC50) in assay [1] is more than 100 µM; in assay [2] it was 50.6 µM; in assay [3], more than 100 µM; in assay [4], “Not Active”; in assay [5], more than 100 µM; in assay [6], 2.75 µM.
Take `CCOC(=O)N1C/C(=C\c2cn(Cc3ccc(Br)cc3)c3ccccc23)C(=O)/C(=C/c2cn(Cc3ccc(Br)cc3)c3ccccc23)C1`: the 50% inhibitory concentration (IC50) in assay [1] was more than 100 µM; in assay [2], more than 100 µM; in assay [3], more than 100 µM; in assay [4], “Not Active”; in assay [5] it was more than 100 µM; in assay [6] it was more than 100 µM.
Regarding `CCOC(=O)N1C/C(=C\c2cn(Cc3ccccc3)c3ccccc23)C(=O)/C(=C/c2cn(Cc3ccccc3)c3ccccc23)C1`, the IC50 in assay [1] was more than 100 µM; in assay [2], more than 100 µM; in assay [3] it was more than 100 µM; in assay [4] it was “Not Active”; in assay [5], more than 100 µM; in assay [6] it was more than 100 µM.
Consider `CCOC(=O)N1C/C(=C\c2cn(Cc3ccccc3C#N)c3ccccc23)C(=O)/C(=C/c2cn(Cc3ccccc3C#N)c3ccccc23)C1`, for which the half-inhibitory concentration (IC50) in assay [1] was more than 100 µM; in assay [2], more than 100 µM; in assay [3], more than 100 µM; in assay [4], “Not Active”; in assay [5], more than 100 µM; in assay [6] it was more than 100 µM.
Regarding `COc1cccc2c1C(=O)c1c(O)c3c(c(O)c1C2=O)C[C@@](O)(C(=O)CO)C[C@@H]3O[C@H]1C[C@H](N)[C@H](O)[C@H](C)O1` [DOXORUBICIN], the IC50 in assay [1] is 9.03 µM; in assay [2] it was 16.4 µM; in assay [3], 10.2 µM; in assay [6] it was 0.14 µM.
Take `CCOC(=O)N1C/C(=C\c2cn(Cc3ccc(-c4ccccc4C#N)cc3)c3ccccc23)C(=O)/C(=C/c2cn(Cc3ccc(-c4ccccc4C#N)cc3)c3ccccc23)C1`: the IC50 is more than 100 µM in assay [1]; more than 100 µM in assay [2]; more than 100 µM in assay [3]; “Not Active” in assay [4]; more than 100 µM in assay [5]; more than 100 µM in assay [6].
Consider `CCOC(=O)N1C/C(=C\c2cn(Cc3ccc(F)cc3)c3ccccc23)C(=O)/C(=C/c2cn(Cc3ccc(F)cc3)c3ccccc23)C1`, for which the IC50 in assay [1] was 48 µM; in assay [2], more than 100 µM; in assay [3], more than 100 µM; in assay [4], “Not Active”; in assay [5], more than 100 µM; in assay [6] it was more than 100 µM.
Take `CCOC(=O)N1C/C(=C\c2cn(Cc3ccc(Cl)cc3Cl)c3ccccc23)C(=O)/C(=C/c2cn(Cc3ccc(Cl)cc3Cl)c3ccccc23)C1`: the 50% inhibitory concentration (IC50) was more than 100 µM in assay [1]; more than 100 µM in assay [2]; more than 100 µM in assay [3]; 14.9 µM in assay [4] (read-out: IC50); more than 100 µM in assay [5]; more than 100 µM in assay [6].
